Reference: patent US9113629B2, “4-amino-6-(4-substituted-phenyl)-picolinates and 6-amino-2-(4-substituted-phenyl)-pyrimidine-4-carboxylates and their use as herbicides” (DOW AGROSCIENCES LLC, priority 2013, dated 2015)
Where two headings read alike, the source gives them in different places.

Tests used:
[1] = tested on: Key Broadleaf Weed and Crop Species; test: Post-emergent Test II herbicidal activity (Table 5); format: in vivo; settings: post-emergence, 336 h, 140 g ai/ha, post-emergent, 14 days after application
Description: (§1) Post-emergent Test II: Seeds or nutlets of the desired test plant species were planted in Sun Gro Metro-Mix® 360 planting mixture, which typically has a pH of 6.0 to 6.8 and an organic matter content of about 30 percent, in plastic pots with a surface area of 64 square centimeters. When required to ensure good germination and healthy plants, a fungicide treatment and/or other chemical or physical treatment was applied. The plants were grown for 7-21 d in a greenhouse with an approximate 15 h photoperiod which was maintained at about 23-29° C. during the day and 22-28° C. during the night. Nutrients and water were added on a regular basis and supplemental lighting was provided with overhead metal halide 1000-Watt lamps as necessary. The plants were employed for testing when they reached the first or second true leaf stage.
(§2) A weighed amount, determined by the highest rate to be tested, of each test compound was placed in a 25 mL glass vial and was dissolved in 4 mL of a 97:3 v/v mixture of acetone and DMSO to obtain concentrated stock solutions. […] The concentrated stock solutions obtained were diluted with 20 mL of an aqueous mixture containing acetone, water, isopropyl alcohol, DMSO. Atplus 411F crop oil concentrate, and Triton® X-155 surfactant in a 48.5:39:10:1.5:1.0:0.02 v/v ratio to obtain spray solutions containing the highest application rates. Additional application rates were obtained by serial dilution of 12 mL of the high rate solution into a solution containing 2 mL of 97:3 v/v mixture of acetone and DMSO and 10 mL of an aqueous mixture containing acetone, water, isopropyl alcohol, DMSO, Atplus 411F crop oil concentrate, and Triton X-155 surfactant in a 48.5:39:10:1.5:1.0:0.02 v/v ratio to obtain ½×, ¼×, ⅛× and 1/16× rates of the high rate. Compound requirements are based upon a 12 mL application volume at a rate of 187 liters per hectare (L/ha). Formulated compounds were applied to the plant material with an overhead Mandel track sprayer equipped with 8002E nozzles calibrated to deliver 187 L/ha over an application area of 0.503 square meters at a spray height of 18 inches (43 cm) above the average plant canopy height. Control plants were sprayed in the same manner with the solvent blank.
(§3) The treated plants and control plants were placed in a greenhouse as described above and watered by subirrigation to prevent wash-off of the test compounds. After 14 d, the condition of the test plants as compared with that of the untreated plants was determined visually and scored on a scale of 0 to 100 percent where 0 corresponds to no injury and 100 corresponds to complete kill.

[2] = tested on: Key Grass and Sedge Weeds as well as Grass Crops; test: Post-emergent Test II herbicidal activity (Table 6); format: in vivo; settings: post-emergence, 336 h, application rate 140 g ai/ha
Description: as §1, §2, §3

[3] = ABUTH: velvetleaf (Abutilon theophrasti), read-out: Visual Growth Reduction (%) 14 Days After Application ABUTH
[4] = AMARE: redroot pigweed (Amaranthus retroflexus), read-out: Visual Growth Reduction (%) 14 Days After Application AMARE
[5] = BRSNN: oilseed-rape, canola (Brassica napus), read-out: Visual Growth Reduction (%) 14 Days After Application BRSNN
[6] = CHEAL: lambsquarters (Chenopodium album), read-out: Visual Growth Reduction (%) 14 Days After Application CHEAL
[7] = EPHHL: wild poinsettia (Euphorbia heterophylla), read-out: Visual Growth Reduction (%) 14 Days After Application EPHHL
[8] = HELAN: sunflower (Helianthus annuus), read-out: Visual Growth Reduction (%) 14 Days After Application HELAN
[9] = VIOTR: wild pansy (Viola tricolor), read-out: Visual Growth Reduction (%) 14 Days After Application VIOTR
[10] = Triticum aestivum, TRZSS (wheat), read-out: Visual Growth Reduction (%) 14 Days After Application, TRZSS
[11] = CYPES: yellow nutsedge (Cyperus esculentus), read-out: Visual Growth Reduction (%) 14 Days After Application, CYPES
[12] = DIGSA: crabgrass (Digitaria sanguinalis), read-out: Visual Growth Reduction (%) 14 Days After Application, DIGSA
[13] = ECHCG: barnyardgrass (Echinochloa crus-galli), read-out: Visual Growth Reduction (%) 14 Days After Application, ECHCG
[14] = ORYSA: rice (Oryza sativa), read-out: Visual Growth Reduction (%) 14 Days After Application, ORYSA
[15] = SETFA: giant foxtail (Setaria faberi), read-out: Visual Growth Reduction (%) 14 Days After Application, SETFA
[16] = SORVU: grain sorghum (Sorghum vulgare), read-out: Visual Growth Reduction (%) 14 Days After Application, SORVU
[17] = ZEAMX: maize, corn (Zea mays), read-out: Visual Growth Reduction (%) 14 Days After Application, ZEAMX

COC(=O)c1nc(-c2ccc(C#N)cc2)c(Cl)c(N)c1Cl [Compound 1]
30 to 44%: pest or weed control at 140 g/ha [2, 11]
95 to 100%: pest or weed control at 140 g/ha [1, 8]
0 to 29%: pest or weed control at 140 g/ha [1, 5] | pest or weed control at 140 g/ha [1, 7] | pest or weed control at 140 g/ha [1, 9] | pest or weed control at 140 g/ha [2, 10] | pest or weed control at 140 g/ha [2, 12] | pest or weed control at 140 g/ha [2, 13] | pest or weed control at 140 g/ha [2, 14] | pest or weed control at 140 g/ha [2, 15] | pest or weed control at 140 g/ha [2, 16] | pest or weed control at 140 g/ha [2, 17]
60 to 74%: pest or weed control at 140 g/ha [1, 3] | pest or weed control at 140 g/ha [1, 4]
133.4 to 134.8 °C: melting point
85 to 94%: pest or weed control at 140 g/ha [1, 6]

Nc1cc(-c2ccc(OC(F)F)cc2)nc(C(=O)O)c1Cl [Compound 10]
170.4 to 172.1 °C: melting point
95 to 100%: pest or weed control at 140 g/ha [1, 3] | pest or weed control at 140 g/ha [1, 4] | pest or weed control at 140 g/ha [1, 7] | pest or weed control at 140 g/ha [2, 15]
0 to 29%: pest or weed control at 140 g/ha [1, 9] | pest or weed control at 140 g/ha [2, 11] | pest or weed control at 140 g/ha [2, 14]
85 to 94%: pest or weed control at 140 g/ha [1, 8] | pest or weed control at 140 g/ha [2, 13]
75 to 84%: pest or weed control at 140 g/ha [1, 6] | pest or weed control at 140 g/ha [2, 12] | pest or weed control at 140 g/ha [2, 16]
60 to 74%: pest or weed control at 140 g/ha [1, 5] | pest or weed control at 140 g/ha [2, 10] | pest or weed control at 140 g/ha [2, 17]

N#Cc1ccc(-c2nc(C(=O)O)c(Cl)c(N)c2Cl)cc1 [Compound 14]
95 to 100%: pest or weed control at 140 g/ha [1, 6] | pest or weed control at 140 g/ha [1, 8]
0 to 29%: pest or weed control at 140 g/ha [1, 3] | pest or weed control at 140 g/ha [1, 4] | pest or weed control at 140 g/ha [1, 5] | pest or weed control at 140 g/ha [1, 7] | pest or weed control at 140 g/ha [1, 9] | pest or weed control at 140 g/ha [2, 10] | pest or weed control at 140 g/ha [2, 11] | pest or weed control at 140 g/ha [2, 12] | pest or weed control at 140 g/ha [2, 13] | pest or weed control at 140 g/ha [2, 14] | pest or weed control at 140 g/ha [2, 15] | pest or weed control at 140 g/ha [2, 16] | pest or weed control at 140 g/ha [2, 17]
178 to 179.7 °C: melting point

COC(=O)c1nc(-c2ccc(OC(F)F)cc2)c(Cl)c(N)c1Cl [Compound 15]
0 to 29%: pest or weed control at 140 g/ha [1, 4] | pest or weed control at 140 g/ha [1, 5] | pest or weed control at 140 g/ha [1, 7] | pest or weed control at 140 g/ha [1, 9] | pest or weed control at 140 g/ha [2, 10] | pest or weed control at 140 g/ha [2, 11] | pest or weed control at 140 g/ha [2, 12] | pest or weed control at 140 g/ha [2, 13] | pest or weed control at 140 g/ha [2, 14] | pest or weed control at 140 g/ha [2, 15] | pest or weed control at 140 g/ha [2, 16] | pest or weed control at 140 g/ha [2, 17]
95 to 100%: pest or weed control at 140 g/ha [1, 8]
102.4 to 103.6 °C: melting point
85 to 94%: pest or weed control at 140 g/ha [1, 3]
30 to 44%: pest or weed control at 140 g/ha [1, 6]

COc1c(N)nc(-c2ccc(C#N)cc2)nc1C(=O)O [Compound 25]
185.2 to 186.1 °C: melting point
0 to 29%: pest or weed control at 140 g/ha [1, 3] | pest or weed control at 140 g/ha [1, 4] | pest or weed control at 140 g/ha [1, 5] | pest or weed control at 140 g/ha [1, 6] | pest or weed control at 140 g/ha [1, 7] | pest or weed control at 140 g/ha [1, 8] | pest or weed control at 140 g/ha [1, 9] | pest or weed control at 140 g/ha [2, 10] | pest or weed control at 140 g/ha [2, 11] | pest or weed control at 140 g/ha [2, 12] | pest or weed control at 140 g/ha [2, 13] | pest or weed control at 140 g/ha [2, 14] | pest or weed control at 140 g/ha [2, 15] | pest or weed control at 140 g/ha [2, 16] | pest or weed control at 140 g/ha [2, 17]

COC(=O)c1nc(-c2ccc(OC(F)(F)F)cc2)nc(N)c1OC [Compound 30]
95 to 100%: pest or weed control at 140 g/ha [1, 7]
122 to 123.6 °C: melting point
45 to 59%: pest or weed control at 140 g/ha [1, 3]
0 to 29%: pest or weed control at 140 g/ha [1, 4] | pest or weed control at 140 g/ha [1, 5] | pest or weed control at 140 g/ha [1, 6] | pest or weed control at 140 g/ha [1, 8] | pest or weed control at 140 g/ha [1, 9] | pest or weed control at 140 g/ha [2, 10] | pest or weed control at 140 g/ha [2, 11] | pest or weed control at 140 g/ha [2, 12] | pest or weed control at 140 g/ha [2, 13] | pest or weed control at 140 g/ha [2, 14] | pest or weed control at 140 g/ha [2, 15] | pest or weed control at 140 g/ha [2, 16] | pest or weed control at 140 g/ha [2, 17]
